Legend:
[1] = system: monoklonaler Antikörper MAK 160 (von Klon 160, ECACC 85 12 1701) gegen Testosteron; assay: Cross-reaction with other steroids, competitive ELISA on plates coated with Testosteron-3-carboxymethyloxim-RSA; format: binding, Maus; conditions: calculated from C = antigen concentration needed to reach 50 % of the maximum signal, relative to Testosteron
Protocol: (§1) Um die Anwesenheit und Spezifität von Antikörpern gegen Testosteron im Serum immunisierter Mäuse oder in dem Kulturüberstand der Hybridzellen oder in Ascites zu erkennen, wird ein ELISA-Verfahren als Testprinzip verwendet: Mikrotiterplatten werden mit 1 /ug Testosteron-3-carboxymethyloxim-RSA/ml Beschichtungspuffer (0,2 M Natriumcarbonat/-Bicarbonat, pH 9,3-9,5) bei 37° C eine Stunde lang beschichtet. Es wird 10 Minuten mit 0,9 % Natriumchloridlösung und 1 % Albuminlösung nachbehandelt. Anschließend wird mit 0,9 % Natriumchloridlösung gewaschen. Danach wird bei 37° C eine Stunde mit 100 /ul Probe inkubiert und erneut mit 0,9 % Natriumchloridlösung gewaschen. Um eine mögliche Kreuzreaktion mit anderen Steroiden zu prüfen, werden der Probelösung 100 µg - 1 /ug/ml des zu prüfenden Steroids zugesetzt. Eine Erniedrigung des Meßsignals in Gegenwart anderer Steroide bedeutet Kreuzreaktion. Es folgt eine weitere Inkubation (eine Stunde, 37° C) mit 450 mU/ml eines Schaf-Fabanti-- Maus-Fcγ-Peroxidase-Konjugats. Nach einem erneuten Waschschritt mit 0,9 % Natriumchlorid wird die Peroxidaseaktivität in üblicher Weise bestimmt (beispielsweise mit ABTS, 30 Minuten bei Raumtemperatur, abgelesen wird die Extinktionsdifferenz, Δ mE, bei 405 nm).
(§2) Der Test wird, wie in Beispiel 2 beschrieben, durchgeführt. […]

[2] = system: monoklonaler Antikörper MAK 97 (von Klon 97, ECACC 85 12 1702) gegen Testosteron; assay: as above; format: binding, Maus; conditions: calculated from C = antigen concentration needed to reach 50 % of the maximum signal, relative to Testosteron
Protocol: as §1, §2

## C[C@]12CCC(=O)C[C@@H]1CC[C@@H]1[C@@H]2CC[C@]2(C)[C@@H](O)CC[C@@H]12 [5α-Dihydrotestosteron]
[1]
  Kreuzreaktion in % mit: 4%
[2]
  Kreuzreaktion in % mit: 5%

Reference: EP0226985A2, “Method and reagent for determining testosterone as well as a monoclonal antibody suitable for this” (BOEHRINGER MANNHEIM GMBH, priority 1985, dated 1987)
